One assay addresses T1, HER3 (Homo sapiens, UniProt P21860).
T1 construct: endogenous in cells; host or cells: OVCAR8
Description: HER3/ERBB3 degradation (western blot, OVCAR8 cells). The assay is classed as cell-based. An outline of the steps:
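OVCAR8 cells received PROTAC from a 1000× stock for exposures >16 h, or a 2× stock for shorter ones. Lysates (Tris pH 8.0, deoxycholate, Triton X-100, protease/phosphatase inhibitors), 30 μg protein, were run on SDS-PAGE and immunoblotted overnight at 4 °C with ECL chemiluminescent detection and densitometric quantification.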

Another assay addresses BLK (Homo sapiens, UniProt P51451). The experiment in a line: KINOMEscan competition binding assay, BLK. Particulars: read-out: KINOMEscan percentage of control, BLK.

SMILES strings stand for the structures. Entries after “also recorded” stand apart in the source; their conditions may differ.

T1 sequence (P21860 20-1342): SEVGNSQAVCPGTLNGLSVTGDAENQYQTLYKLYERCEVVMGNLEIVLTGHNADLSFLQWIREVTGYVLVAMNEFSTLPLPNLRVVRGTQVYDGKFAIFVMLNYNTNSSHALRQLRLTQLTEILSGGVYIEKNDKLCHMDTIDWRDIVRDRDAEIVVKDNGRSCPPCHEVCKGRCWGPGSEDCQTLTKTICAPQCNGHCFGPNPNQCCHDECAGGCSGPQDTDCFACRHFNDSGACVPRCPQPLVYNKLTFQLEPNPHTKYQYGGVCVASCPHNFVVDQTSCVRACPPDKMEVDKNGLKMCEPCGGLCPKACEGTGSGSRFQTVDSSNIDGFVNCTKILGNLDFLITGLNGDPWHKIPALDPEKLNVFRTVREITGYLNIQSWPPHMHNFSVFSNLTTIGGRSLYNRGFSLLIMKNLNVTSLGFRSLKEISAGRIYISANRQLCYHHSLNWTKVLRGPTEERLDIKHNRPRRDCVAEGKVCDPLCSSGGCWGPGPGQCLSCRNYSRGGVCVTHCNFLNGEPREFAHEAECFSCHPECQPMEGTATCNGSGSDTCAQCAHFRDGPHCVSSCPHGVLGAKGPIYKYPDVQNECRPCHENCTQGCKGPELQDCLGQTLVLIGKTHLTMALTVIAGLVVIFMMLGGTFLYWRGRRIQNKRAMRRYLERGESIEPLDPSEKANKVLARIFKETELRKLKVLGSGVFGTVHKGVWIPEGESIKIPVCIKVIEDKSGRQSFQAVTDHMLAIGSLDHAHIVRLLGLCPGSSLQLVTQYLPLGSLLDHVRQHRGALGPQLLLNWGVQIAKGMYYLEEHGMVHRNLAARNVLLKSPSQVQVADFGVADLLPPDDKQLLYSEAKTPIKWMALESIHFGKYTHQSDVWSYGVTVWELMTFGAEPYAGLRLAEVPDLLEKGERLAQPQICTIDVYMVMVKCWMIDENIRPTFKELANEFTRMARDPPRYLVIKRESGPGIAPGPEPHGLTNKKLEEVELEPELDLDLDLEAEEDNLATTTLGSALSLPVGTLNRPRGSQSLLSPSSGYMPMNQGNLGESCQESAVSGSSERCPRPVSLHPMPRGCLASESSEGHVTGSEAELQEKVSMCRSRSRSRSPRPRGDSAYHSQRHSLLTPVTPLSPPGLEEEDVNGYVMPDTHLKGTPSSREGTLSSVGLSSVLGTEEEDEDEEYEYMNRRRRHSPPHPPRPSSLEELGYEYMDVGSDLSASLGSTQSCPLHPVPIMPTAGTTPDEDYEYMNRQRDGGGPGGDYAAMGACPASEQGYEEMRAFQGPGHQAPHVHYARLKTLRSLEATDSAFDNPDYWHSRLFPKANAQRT
Chain of BLK (P51451 whole entry): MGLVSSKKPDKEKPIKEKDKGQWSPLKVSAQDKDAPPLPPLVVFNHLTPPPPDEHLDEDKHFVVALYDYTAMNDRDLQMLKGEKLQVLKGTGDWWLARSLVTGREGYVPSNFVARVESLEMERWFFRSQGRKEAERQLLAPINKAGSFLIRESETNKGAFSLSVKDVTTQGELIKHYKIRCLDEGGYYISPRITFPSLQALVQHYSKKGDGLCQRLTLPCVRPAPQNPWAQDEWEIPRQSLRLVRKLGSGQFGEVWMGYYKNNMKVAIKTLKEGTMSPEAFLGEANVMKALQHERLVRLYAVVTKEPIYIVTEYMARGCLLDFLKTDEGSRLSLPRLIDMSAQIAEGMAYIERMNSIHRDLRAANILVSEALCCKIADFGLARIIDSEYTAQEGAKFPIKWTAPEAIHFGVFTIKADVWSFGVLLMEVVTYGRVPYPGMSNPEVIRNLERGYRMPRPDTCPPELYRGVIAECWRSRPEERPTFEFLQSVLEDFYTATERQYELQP

As to `Nc1ncnc2c1c(-c1ccc(Oc3ccccc3)cc1)nn2C1CCN(CCOCCOCC(=O)Nc2ccc3c(c2)C(=O)N(C2CCC(=O)NC2=O)C3=O)CC1` (stereo not drawn) [Compound 102, 2-[2-[2-[4-[4-amino-3-(4-phenoxyphenyl)pyrazolo[3,4-d]pyrimidin-1-yl]-1-piperidyl]ethoxy]ethoxy]-N-[2-(2,6-dioxo-3-piperidyl)-1,3-dioxo-isoindolin-5-yl]acetamide], the “HER3 Degradation” value on HER3 is “No”. For the same compound, the ERBB3 degradation entry on HER3 (OVCAR8 cells) is “did not lead to ERBB3 degradation; also recorded: no significant degradation”. Moreover, on BLK, the remaining binding at 1 µM worked out at 0.35%.

The record behind these values is patent US11028088B2, “Modulators of BTK proteolysis and methods of use” (Yale University, priority 2018, dated 2021).
